According to PubChem BioAssay AID1919015 (Molecular Pharmacology Branch, DTP, NCI, 2023):
Several values for one entry are separate records, joined by “and”; a condition that tells them apart may be missing. Equal entries are not always repeated.

Tested on: OVCAR-5 complex spheroids with HUVEC/MSC, viability, % test/control
Test: Anticancer human tumor OVCAR-5 cell line growth inhibition [AhR];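 further: spheroids exposed to compounds for 7 days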;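 on viability, T/C: 100% = DMSO vehicle control wells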
Conditions: for viability, T/C: stronger effect = lower value
In short: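 Agents were dosed in half-log steps down from roughly clinical Cmax, or from 10 microM where Cmax was unknown, alone and with AhR antagonists. Read-out: percent test/control growth of tumor spheroids containing HUVEC and MSC stromal cells.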

[1] = curve of first compound, second compound 0.1 µM
[2] = curve of first compound, second compound 0.316 µM
[3] = curve of first compound, second compound 1 µM
[4] = curve of first compound, second compound 3.16 µM
[5] = curve of first compound, second compound 10 µM
[6] = second compound 0.1 µM, first compound 0.0316 µM
[7] = second compound 0.1 µM, first compound 0.1 µM
[8] = second compound 0.1 µM, first compound 0.316 µM
[9] = second compound 0.1 µM, first compound 1 µM
[10] = second compound 0.316 µM, first compound 0.0316 µM
[11] = second compound 0.316 µM, first compound 0.1 µM
[12] = second compound 0.316 µM, first compound 0.316 µM
[13] = second compound 0.316 µM, first compound 1 µM
[14] = second compound 1 µM, first compound 0.0316 µM
[15] = second compound 1 µM, first compound 0.1 µM
[16] = second compound 1 µM, first compound 0.316 µM
[17] = second compound 1 µM, first compound 1 µM
[18] = second compound 3.16 µM, first compound 0.0316 µM
[19] = second compound 3.16 µM, first compound 0.1 µM
[20] = second compound 3.16 µM, first compound 0.316 µM
[21] = second compound 3.16 µM, first compound 1 µM
[22] = second compound 10 µM, first compound 0.0316 µM
[23] = second compound 10 µM, first compound 0.1 µM
[24] = second compound 10 µM, first compound 0.316 µM
[25] = second compound 10 µM, first compound 1 µM
[26] = second compound 0.1 µM, first compound 3.16 µM
[27] = second compound 0.1 µM, first compound 10 µM
[28] = second compound 0.316 µM, first compound 3.16 µM
[29] = second compound 0.316 µM, first compound 10 µM
[30] = second compound 1 µM, first compound 3.16 µM
[31] = second compound 1 µM, first compound 10 µM
[32] = second compound 3.16 µM, first compound 3.16 µM
[33] = second compound 3.16 µM, first compound 10 µM
[34] = second compound 10 µM, first compound 3.16 µM
[35] = second compound 10 µM, first compound 10 µM

SMILES	IC50 [1] [nM]	IC50 [2] [nM]	IC50 [3] [nM]	IC50 [4] [nM]	IC50 [5] [nM]	viability, T/C [6] [%]	viability, T/C [7] [%]	viability, T/C [8] [%]	viability, T/C [9] [%]	viability, T/C [10] [%]	viability, T/C [11] [%]	viability, T/C [12] [%]	viability, T/C [13] [%]	viability, T/C [14] [%]	viability, T/C [15] [%]	viability, T/C [16] [%]	viability, T/C [17] [%]	viability, T/C [18] [%]	viability, T/C [19] [%]	viability, T/C [20] [%]	further results
CC1COCCN1c1cc(-c2ccnn2C)c2ccnc(-c3ccn[nH]3)c2n1 (configuration not stated) + Cc1cncc(-c2nc(NCCc3c[nH]c4ccccc34)c3ncn(C(C)C)c3n2)c1	273	282	265	183	< 3.16	103	83	45.2	32.9	105	85	46.3	32.9	100	78.2	45.6	33.9	84.2	65.2	36.5	viability, T/C (second compound 0.1 µM, first compound 0.00316 µM): 107%; viability, T/C (second compound 0.1 µM, first compound 0.01 µM): 103%; viability, T/C (second compound 0.316 µM, first compound 0.00316 µM): 106%; viability, T/C (second compound 0.316 µM, first compound 0.01 µM): 104%; viability, T/C (second compound 1 µM, first compound 0.00316 µM): 97.3%; viability, T/C (second compound 1 µM, first compound 0.01 µM): 99.2%; viability, T/C (second compound 3.16 µM, first compound 0.00316 µM): 80.8%; viability, T/C (second compound 3.16 µM, first compound 0.01 µM): 87.4%; viability, T/C [21]: 30.1%; viability, T/C (second compound 10 µM, first compound 0.00316 µM): 12.8%; viability, T/C (second compound 10 µM, first compound 0.01 µM): 12.8%; viability, T/C [22]: 13.7%; viability, T/C [23]: 10.6%; viability, T/C [24]: 6.62%; viability, T/C [25]: 7.97%
CC(C)c1c(-c2ccccc2)nc2c(C#N)c[nH]n2c1=O + Cc1ccccc1N=Nc1ccc(NC(=O)c2ccnn2C)c(C)c1	> 10000	> 10000	> 10000	> 10000	> 10000	104	102	101	101	105	111	106	103	112	109	109	106	112	112	111	viability, T/C [26]: 104%; viability, T/C [27]: 106%; viability, T/C [28]: 106%; viability, T/C [29]: 104%; viability, T/C [30]: 106%; viability, T/C [31]: 111%; viability, T/C [21]: 108%; viability, T/C [32]: 111%; viability, T/C [33]: 114%; viability, T/C [22]: 108%; viability, T/C [23]: 110%; viability, T/C [24]: 108%; viability, T/C [25]: 107%; viability, T/C [34]: 104%; viability, T/C [35]: 104%
COc1cccc2c1C(=O)c1c(O)c3c(c(O)c1C2=O)CC(O)(C(=O)CO)CC3OC1CC(N)C(O)C(C)O1 (configuration not stated) + Cc1cncc(-c2nc(NCCc3c[nH]c4ccccc34)c3ncn(C(C)C)c3n2)c1	310	240	241	< 31.6	< 31.6	63.7	54.8	49	27.9	61.8	54	47.3	26.9	55.4	51.6	48.2	24.3	42.7	42.8	39.3	viability, T/C [26]: 1.4%; viability, T/C [27]: 1.85%; viability, T/C [28]: 2.85%; viability, T/C [29]: 1.79%; viability, T/C [30]: 1.27%; viability, T/C [31]: 1.8%; viability, T/C [21]: 19.3%; viability, T/C [32]: 1.16%; viability, T/C [33]: 1.68%; viability, T/C [22]: 5.12%; viability, T/C [23]: 5.58%; viability, T/C [24]: 13.1%; viability, T/C [25]: 4.16%; viability, T/C [34]: 1.37%; viability, T/C [35]: 1.89%
Nc1ncn(C2CC(O)C(CO)O2)c(=O)n1 (configuration not stated)	–	–	–	–	–	–	–	–	–	–	–	–	–	–	–	–	–	–	–	–	viability, T/C (compound 0.00316 µM): 101% and 99.1% and 104%; viability, T/C (compound 0.01 µM): 97.8% and 103% and 98.1%; viability, T/C (compound 0.0316 µM): 94% and 94.8% and 88.5%; viability, T/C (compound 0.1 µM): 82.6% and 82.3% and 82%; viability, T/C (compound 0.316 µM): 76% and 70.8% and 68.8%; viability, T/C (compound 1 µM): 65% and 59.9% and 63.7%; IC50 (curve of compound): > 1000 nM
